Measured values taken from patent publication US10105349B2, “Organic compounds” (INTRA-CELLULAR THERAPIES, INC., priority 2014, dated 2018).
Where two headings read alike, the source gives them in different places.

How the values were obtained:
[1] = published standard, 10 mg/kg PO; cited from earlier work
r-hPDE2A = r-hPDE2A (Homo sapiens (Human), UniProt O00408); experiment: Measurement of PDE2 inhibition in vitro (IMAP fluorescence polarization); assay type: biochemical; details: FL-cAMP substrate, buffer supplemented with 1 μM cGMP
Experimental: Measurement of PDE2 Inhibition In Vitro
r-hPDE2A (Accession No. NM_002599, Homo sapiens phosphodiesterase 2A, cGMP-stimulated, transcript variant 1) A mammalian expression cloning vector with recombinant cDNA copy of the gene is purchased from Origene. Protein is expressed via transient transfection of HEK293 cells. The cells are harvested at 48 hours after transfection, washed once with TBS buffer (50 mM Tris-HCl, pH 7.5, 150 mM NaCl), then lysed by sonication in cold homogenization buffer (50 mM Tris-HCl, pH 7.5, 5 mM MgCl2, 1× protease inhibitor cocktail). The homogenate is centrifuged for 30 min at 15,000 g at 4° C. to obtain the soluble cytosolic fraction. The protein concentration of the cytosol is determined using BCA Protein Assay Kit (Pierce) with bovine serum albumin as a standard.
Assay: PDE2A is assayed with FL-cAMP as substrate. An enzyme titration is first performed to determine the working concentration of PDE. The concentration of the enzyme giving activity of 100 ΔmP in the absence of inhibitor is deemed an appropriate working concentration for PDE.
PDE enzyme is diluted in a standard reaction buffer (10 mM Tris-HCl pH 7.2, 10 mM MgCl2, 0.1% BSA, 0.05% NaN3) according to the titration curve. For PDE2 assay the reaction buffer is supplemented with 1 μM cGMP to fully activate the enzyme. 99 μl of diluted enzyme solution is added into each well in a flat bottom 96-well polystyrene plate and then ˜1 μl of test compound dissolved in 100% DMSO is added. The compounds are mixed and pre-incubated with the enzyme for 10 min at room temperature.
The FL-cNMP conversion reaction is initiated by addition of substrate (45 nM final). Enzyme and inhibitor mix (16 μl) and substrate solution (4 μl of 0.225 μM) are combined in a 384-well microtiter plate. The reaction is incubated in the dark at room temperature for 15 min. The reaction is halted by addition of 60 μl of binding reagent (1:400 dilution of IMAP beads in binding buffer supplemented with 1:1800 dilution of antifoam) to each well of the 384-well plate. The plate is incubated at room temperature for 1 hour to allow IMAP binding to proceed to completion, and then placed in an Envision multimode microplate reader (PerkinElmer, Shelton, Conn.) to measure the fluorescence polarization (Δmp).
A decrease in cAMP concentration, measured as decreased Amp, is indicative of inhibition of PDE activity. […] Test well values are normalized to control reactions run on the same plate (values converted to % of control). IC50 values are estimated using nonlinear regression software, fitting a four-parameter one-site dose-response model (XLFit; IDBS, Cambridge, Mass.). Bottom of curve is fixed at 0% of control.
The total fluorescence intensity of each sample well is measured to calculate the average and standard deviation. If the total fluorescence intensity of any sample well is not within the range of Average±3SD, the mp value of that particular well is discarded.

[2] = Pharmacokinetic study in mice (plasma and brain availability); assay type: in vivo; details: 10 mg/kg PO; for blood plasma ratio: brain/plasma, po, 10 mg/kg
Experimental: Pharmacokinetic Study in Mice
Mice are given a single oral dose of the compound of Example 22 (10 mg/kg, PO) and plasma and brain availability are measured (0.25-4 h) using HPLC and LC-MS using methods analogous to those described in Zhao et al., J. Chromatogr. B. Analyt. Technol. Biomed. Life Sci. (2005) 819(1):73-80 and Appels, N. M., et al., Rapid Commun. Mass Spec. 2005. 19(15): p. 2187-92.

[3] = tested on: cGMP levels in the striatum; experiment: Measurements of cGMP in mouse brain in vivo
Experimental: Measurements of cGMP in Mouse Brain in vivo:
Striatum are dissected from the mouse brains and assayed for levels of cGMP. Trichloroacetic acid (TCA) is added to tissue samples for a final concentration of 5% TCA and the tissue is immediately sonicated in solution and stored on ice. The sonicated sample is centrifuged at 15,000×g for 20 min at 4° C. to remove the precipitated protein. To extract the TCA, the sample is washed three times in water saturated ether. The samples are then dried under vacuum (Speedvac, Savant SPD111V) at room temperature and re-suspended in 100 μL EIA buffer. […] Each sample is tested in duplicate in precoated assay plates alongside the 8-point cGMP standard dilutions. In addition, blank, maximum binding (B0) and non-specific binding wells are included. To all wells containing 50 μL sample or standard, equal volumes of AChE-linked cGMP and cGMP antibody are added. The plate is incubated at 4° C. for 18 hours. The wells are then washed 5 times with wash buffer. […] Each data point is converted to % B/B0 (100*[(sample or standard OD−average non-specific binding)/(average B0−average non-specific binding)]). The standards are plotted and fit to a 4-parameter logistic equation (FIG. 1). The concentrations of the samples are interpolated from the standard curve using Microsoft Excel and GraphPad Prizm.

r-hPDE2A, sequence (O00408 whole entry): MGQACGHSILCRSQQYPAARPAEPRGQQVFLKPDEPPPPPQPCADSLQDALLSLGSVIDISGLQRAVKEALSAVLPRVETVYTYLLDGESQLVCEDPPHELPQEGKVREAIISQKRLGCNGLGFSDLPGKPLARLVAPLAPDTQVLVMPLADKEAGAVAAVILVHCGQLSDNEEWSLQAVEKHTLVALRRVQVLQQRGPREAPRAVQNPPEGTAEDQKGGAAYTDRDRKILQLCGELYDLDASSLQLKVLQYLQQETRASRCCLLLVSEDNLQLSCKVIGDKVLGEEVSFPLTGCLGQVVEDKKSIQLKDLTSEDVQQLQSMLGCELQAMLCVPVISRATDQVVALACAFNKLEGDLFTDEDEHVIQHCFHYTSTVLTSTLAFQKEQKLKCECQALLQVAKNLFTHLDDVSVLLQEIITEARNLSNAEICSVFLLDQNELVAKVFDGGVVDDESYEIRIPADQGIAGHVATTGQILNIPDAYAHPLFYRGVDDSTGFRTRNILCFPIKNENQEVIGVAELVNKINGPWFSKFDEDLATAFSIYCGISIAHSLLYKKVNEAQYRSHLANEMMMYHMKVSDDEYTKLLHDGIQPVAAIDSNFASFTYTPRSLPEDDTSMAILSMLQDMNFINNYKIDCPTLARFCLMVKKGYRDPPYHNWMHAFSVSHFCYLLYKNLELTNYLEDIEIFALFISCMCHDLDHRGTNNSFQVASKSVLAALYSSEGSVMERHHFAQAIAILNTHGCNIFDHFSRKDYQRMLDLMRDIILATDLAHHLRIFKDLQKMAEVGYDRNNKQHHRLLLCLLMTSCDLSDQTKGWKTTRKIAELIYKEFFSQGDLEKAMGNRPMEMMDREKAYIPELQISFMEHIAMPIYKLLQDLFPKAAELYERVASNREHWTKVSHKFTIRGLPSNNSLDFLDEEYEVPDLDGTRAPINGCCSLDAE

Q: For `COc1ccc(Cc2nn3c([C@@H](CCCc4ccccc4)[C@@H](C)O)nc(C)c3c(=O)[nH]2)cc1OC` [Bay 60-7550], which Cmax [1] is on record?
A: 3 ng/mL

Q: And the Tmax [1]?
A: 0.25 h

Q: With `CCCCOc1ccc(Cl)c(-n2nc(C)c3c(=O)[nH]c4cccnc4c32)c1` [Example 17, 1-(5-Butoxy-2-chlorophenyl)-3-methyl-1H-pyrazolo[4,3-c][1,5]naphthyridin-4(5H)-one] as the compound, how does the IC50 (r-hPDE2A) read?
A: 28 nM

Q: With `Cc1nn(-c2cc(Cl)ccc2Cl)c2c1c(=O)[nH]c1ccc(Cl)nc12` [Example 19, 8-Chloro-1-(2,5-dichlorophenyl)-3-methyl-1H-pyrazolo[4,3-c][1,5]naphthyridin-4(5H)-one] as the compound, how does the IC50 (r-hPDE2A) read?
A: 73 nM

Q: Which IC50 (r-hPDE2A) does the source give for `CCCCOc1ccc(Cl)c(-n2nc(C)c3c(=O)[nH]c4ccc(Cl)nc4c32)c1` [Example 20, 1-(5-Butoxy-2-chlorophenyl)-8-chloro-3-methyl-1H-pyrazolo[4,3-c][1,5]naphthyridin-4(5H)-one] here?
A: 12 nM

Q: For `CCCCOc1ccc(Cl)c(-n2nc(C)c3c(=O)[nH]c4ccc(OC)nc4c32)c1` [Example 21, 1-(5-Butoxy-2-chlorophenyl)-8-methoxy-3-methyl-1H-pyrazolo[4,3-c][1,5]naphthyridin-4(5H)-one], which IC50 (r-hPDE2A) is on record?
A: 9.4 nM

Q: With `COc1ccc2[nH]c(=O)c3c(C)nn(-c4cc(OCC5CCC5)ccc4Cl)c3c2n1` [Example 22, 1-(2-Chloro-5-(cyclobutylmethoxy)phenyl)-8-methoxy-3-methyl-1H-pyrazolo[4,3-c][1,5]naphthyridin-4(5H)-one] as the compound, how does the IC50 (r-hPDE2A) read?
A: 5.9 nM

Q: And the brain access ([2]; 0.25-4 h, compared to Bay 60-7550)?
A: good brain access

Q: And the AUC ([2]; mouse, brain)?
A: 83 ng·h/mL

Q: What about the AUC(0-t) ([2]; mouse, brain) of the same compound?
A: 50 ng·h/mL

Q: And the Cmax ([2]; mouse, brain)?
A: 17 ng/mL

Q: And the Tmax ([2]; mouse, brain)?
A: 2 h

Q: What about the half-life ([2]; mouse, brain, read-out: E Half-life (converted)) of the same compound?
A: 2.4 h

Q: What about the blood plasma ratio ([2]; mouse, read-out: Blood/plasma Ratio of AUC (area)) of the same compound?
A: 0.9

Q: What about the blood plasma ratio ([2]; mouse, read-out: Blood/plasma Ratio of Cmax (obs)) of the same compound?
A: 1.4

Q: What about the blood plasma ratio ([2]; mouse, Blood/plasma Ratio of AUC (0-4 hr) (obs area)) of the same compound?
A: 1.4

Q: And the “cGMP levels in the striatum of mice” value ([3]; 3 mg/kg i.p., 15, 30 or 60 min, compared to Bay 60-7550 (3 mg/kg))?
A: increases cGMP levels

Q: What about the “brain access compared to Bay60-7550” value ([3]; inferred from striatal cGMP after 3 mg/kg i.p.) of the same compound?
A: improvement in brain access
